Assay results reported in BigSolDB 2.1.

CC(O)(P(=O)(O)O)P(=O)(O)O.O
solubility (mole fraction)
Details	293.15 K	298.15 K	303.15 K	308.15 K	313.15 K	318.15 K	323.15 K	328.15 K
in acetic acid	0.00181	0.0019	0.00196	0.002	0.002	0.00214	0.00225	0.00224
in water	0.174	0.182	0.19	0.198	0.207	0.215	0.225	0.235
